From PMC7565067, “Identification and Target-Modification of SL-BBI: A Novel Bowman–Birk Type Trypsin Inhibitor from Sylvirana latouchii” (Biomolecules, 2020) come the findings set out here.

The subject of one experiment is MCF-7 cells. The class given is cell-based, human. The conditions noted are these: 24 h; SD. As to the method:
(§1) MTT (3-(4, 5-dimethylthiazol-2-yl)-2, 5-diphenyltetrazolium bromide) cell viability assay was performed to evaluate the cell proliferation inhibitory rate of synthetic peptides in a series of human cell lines: PC-3 (ATCC® CRL-1435™), H157 (RRID: CVCL_0463), H460 (ATCC® HTB-177™), H838 (ATCC® CRL-5844™), H23 (ATCC® CRL-5800™), MCF-7 (ATCC® HTB-22™), HCT116 (ATCC® CCL-247™), U251MG (ECACC-09063001) and HMEC-1 (ATCC® CRL-3243™) which was detailed in the previous report.

For another experiment, the system named is H838 cells. The class given is cell-based, human. The settings on record: 24 h; SD. As to the method:
as §1

The test system of another experiment is H157 cells. It is filed as cell-based, human. The settings on record: 24 h; SD. Here is the method: as §1
The test system of the next experiment is H460 cells. It is filed as cell-based, human. The conditions noted are these: 24 h; SD. As to the method:
as §1

In the next experiment the test system is HMEC-1 cells. The class given is cell-based, human. The conditions noted are these: 24 h; SD. As to the method: as §1
Another experiment relates to H23 cells. The class given is cell-based, human. The conditions noted are these: 24 h; SD. As to the method: as §1
Another experiment has as its system PC-3 cells. It is filed as cell-based, human. The conditions noted are these: 24 h; SD. As to the method:
as §1

Experiment [1] deals with Escherichia coli (ATCC 11775). It is filed as cell-based. As to the method: (§2) Antimicrobial activity of the synthetic peptides was assessed by determination of MIC/MBC on Escherichia coli (ATCC 11775), Staphylococcus aureus (ATCC 12600), Candida albicans (NCYC 1467) and methicillin-resistant Staphylococcus aureus (MRSA) (NCTC 12493) according to the previous report. Briefly, the test microorganism was inoculated in Mueller Hinton Broth (MHB) medium and incubated overnight at 37 °C. Then the subculture was performed until the optical density (OD) reached the logarithmic growth phase and diluted to 1 × 10^6 colony forming units (CFU)/mL for bacteria and 1 × 10^5 CFU/mL for fungus obtained. The synthetic peptides with the concentration from 1 to 512 µM were double diluted by PBS. Five replications of sterile control, vehicle control and growth control were set as 100 µL MHB/well, 100 µL 1% PBS with subculture solution/well and 100 µl subculture solution/well, respectively. The 96-well plate was incubated at 37 °C overnight. The absorbance of each well at 550 nm was measured by Synergy HT plate reader (Biotech, Minneapolis, MN, USA). The minimum bactericidal concentration was detected by sub-culturing treated samples onto Mueller-Hinton agar (MHA) plate for another eighteen hours at 37 °C.

Experiment [2] relates to Candida albicans (NCYC 1467). It is filed as cell-based. Here is the method:
as §2

The subject of experiment [3] is methicillin-resistant Staphylococcus aureus (MRSA) (NCTC 12493). The class given is cell-based. Here is the method:
as §2

For experiment [4], the system named is Staphylococcus aureus (ATCC 12600). The class given is cell-based. Here is the method: as §2
A further experiment concerns the target chymotrypsin (Bos taurus, UniProt P00766). The experiment in a line: biochemical.

Where a SMILES comes first, the peptide text is derived from it. Bridges are numbered along the chain shown (N, C = ends).

Description for chymotrypsin: Ten microliters of trypsin/chymotrypsin (Sigma Aldrich, Dorset, UK) working solution (0.1 µM in 1 mM HCl) was added into the wells of a black micro-titre plate with corresponding substrate and peptide replicates (0.1–100 µM) in 10 mM phosphate buffer (final volume 210 μL). Additionally, Phe-Pro-Arg- NHMec (Bachem, Cambridge, UK) and Succinyl-Ala-Ala-Pro-Phe-NHMec (Bachem, Cambridge, UK) were performed as substrates for trypsin and chymotrypsin, respectively. The fluorescence intensity of NHMec was monitored at 37 °C continuously for 30 min by a FLUOstar OPTIMA multi-well plate reader (BMG Labtech, Ortenberg, Germany) at wavelengths of 460 nm for emission and 395 nm for excitation.

The term IC50 denotes the point on the concentration scale where inhibition reaches its midpoint. Read a low IC50 as higher potency. As usually defined, the Ki is a measure of affinity in units of concentration, obtained from inhibition or displacement. Higher therefore signals a looser hold on the target. As for `CC[C@H](C)[C@@H]1NC(=O)[C@H](CO)NC(=O)[C@H](Cc2ccccc2)NC(=O)[C@H]([C@@H](C)O)NC(=O)[C@H](Cc2c[nH]c3ccccc23)NC(=O)[C@@H](NC(=O)CNC(=O)[C@H](CCCNC(=N)N)NC(=O)[C@H](CC(C)C)NC(=O)[C@H](C)NC(=O)[C@@H](N)CO)CSSC[C@@H](C(=O)N[C@@H](CC(C)C)C(N)=O)NC(=O)[C@@H]2CCCN2C(=O)[C@H](CCCCN)NC(=O)[C@@H]2CCCN2C(=O)[C@@H]2CCCN2C1=O` [F-SL] (H-SALRGCWTFSIPPKPCL-NH2; disulfide 6-16), the IC50 is 202 ± 10.6 µM in the experiment with MCF-7 cells; 59.7 ± 2.72 µM with H838 cells; 101 ± 1.74 µM with H157 cells; 66 ± 2.64 µM in the experiment on H460 cells; 574 ± 9.41 µM in the experiment with HMEC-1 cells; 79.1 ± 6.41 µM in the experiment with H23 cells. This compound also yielded an IC50 in the experiment with PC-3 cells of 159 ± 6.44 µM. The “MBC, E. coli” value in [1] was over 512 µM. In addition, the “MIC, E. coli” value in experiment [1] was over 512 µM. In addition, in experiment [2], the “MBC, C. albicans” value was over 512 µM. In addition, the “MIC, C. albicans” value in experiment [2] is over 512 µM. Further, the “MBC, MRSA” value in [3] was over 512 µM. The “MIC, MRSA” value in [3] is over 512 µM. Moreover, the “MBC, S. aureus” value in experiment [4] was over 512 µM. The “MIC, S. aureus” value in [4] is over 512 µM. In addition, the Ki at chymotrypsin worked out at 0.309 µM.
As to `CC[C@H](C)[C@@H]1NC(=O)[C@H](CO)NC(=O)[C@H](CCCCN)NC(=O)[C@H]([C@@H](C)O)NC(=O)[C@H](Cc2c[nH]c3ccccc23)NC(=O)[C@@H](NC(=O)CNC(=O)[C@H](CCCNC(=N)N)NC(=O)[C@H](CC(C)C)NC(=O)[C@H](C)NC(=O)[C@H](C)N)CSSC[C@@H](C(=O)N[C@@H](CCCCN)C(N)=O)NC(=O)[C@@H]2CCCN2C(=O)[C@H](CCCCN)NC(=O)[C@@H]2CCCN2C(=O)[C@@H]2CCCN2C1=O` [K-SL] (H-AALRGCWTKSIPPKPCK-NH2; disulfide 6-16), the “MBC, E. coli” value in experiment [1] is 128/128 μM. In addition, in experiment [2], the “MBC, C. albicans” value is 64/64 μM. Also, in [3], the “MBC, MRSA” value was over 512 µM and the “MIC, MRSA” value is over 512 µM. In addition, the “MBC, S. aureus” value in [4] is 64/64 μM.
Regarding `CC(C)C[C@H](NC(=O)[C@@H]1CSSC[C@H](NC(=O)CNC(=O)[C@H](CCCNC(=N)N)NC(=O)[C@H](CC(C)C)NC(=O)[C@H](C)NC(=O)[C@@H](N)CO)C(=O)N[C@@H](Cc2c[nH]c3ccccc23)C(=O)N[C@@H]([C@@H](C)O)C(=O)N[C@@H](CCCCN)C(=O)N[C@@H](CO)C(=O)N[C@@H](Cc2ccc(O)cc2)C(=O)N2CCC[C@H]2C(=O)N2CCC[C@H]2C(=O)N[C@@H](CCCCN)C(=O)N2CCC[C@H]2C(=O)N1)C(N)=O` [SL-BBI] (H-SALRGCWTKSYPPKPCL-NH2; disulfide 6-16), the “MBC, E. coli” value in [1] is listed as 128/128 μM. Besides, in experiment [2], the MBC, C. albicans turned out to be 256 µM and the MIC, C. albicans was 256 µM. In experiment [3], the “MBC, MRSA” value is over 512 µM and the “MIC, MRSA” value was over 512 µM. In addition, in [4], the MBC, S. aureus came to 256 µM and the MIC, S. aureus was 256 µM.
